Experimental data: BindingDB's records for doi:10.1016/s0960-894x(02)00140-3 (Aventis Pharma, 2002)

Target: Proto-oncogene tyrosine-protein kinase Src (Homo sapiens, UniProt P12931)
Assay: ChEBML_202783
Method: The compound was evaluated for its binding affinity towards phosphotyrosine binding pocket of Src protein tyrosine kinase SH2 domain

Proto-oncogene tyrosine-protein kinase Src, sequence (P12931 2-536 limits assumed): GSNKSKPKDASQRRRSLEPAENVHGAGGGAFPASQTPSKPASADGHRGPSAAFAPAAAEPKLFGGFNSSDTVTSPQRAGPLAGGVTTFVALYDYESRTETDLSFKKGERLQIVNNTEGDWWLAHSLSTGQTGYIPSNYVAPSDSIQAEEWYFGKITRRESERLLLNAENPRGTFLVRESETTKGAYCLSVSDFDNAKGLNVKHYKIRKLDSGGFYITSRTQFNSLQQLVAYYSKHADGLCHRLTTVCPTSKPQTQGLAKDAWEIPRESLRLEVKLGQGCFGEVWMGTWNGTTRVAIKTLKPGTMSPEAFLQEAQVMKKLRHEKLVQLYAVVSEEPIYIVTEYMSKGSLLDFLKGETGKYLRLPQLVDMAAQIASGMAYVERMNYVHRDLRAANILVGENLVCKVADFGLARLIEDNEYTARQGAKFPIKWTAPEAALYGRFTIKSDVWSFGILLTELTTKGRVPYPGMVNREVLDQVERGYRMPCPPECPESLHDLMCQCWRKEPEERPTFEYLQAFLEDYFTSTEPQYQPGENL

O=P(O)(O)C(O)c1cccc2ccccc12 (stereo unspecified) [[hydroxy(naphthalen-1-yl)methyl]phosphonic acid]
IC50: > 5 mM
